# From patent US12302908B2, “Insect neuropeptides 4” (Solasta Bio Limited, priority 2023, dated 2025)
# How the values were obtained:
# [1] = system: Plutella xylostella; assay: Leaf dip assay 2 (IRAC susceptibility test method 019), mortality; type: in vivo; conditions: unformulated peptide at 1×10^−4 M; dipped leaf disc on agar; after 96 hours; FIG. 6
# Method: The assay was carried out based on IRAC susceptibility test method 019 (irac-online.org/methods/aphids-adultnymphs/). Fill a small 4 cm wide 3 cm high dish with a 1% agar treatment solution of the active chemical or control (ensuring 1 cm gap between the agar and the lid) and leave to set. Dip a 2.5 cm leaf disc into 3 ml of treatment solution allowing the treatment to coat the leaf. Leave the disc to dry for 1 hour and place onto the set agar. Place insects (Plutella xylostella) onto each of the leaf discs. Each unit is sealed with a close-fitting, ventilated lid. Place the agar dishes in a small plastic tray lined with moist tissue paper and ensure the water trays in the bottom of the incubator are filled with clean water and place within the incubator. An assessment of mortality is made at 72, 96 and 120 hours. Leaf dip assays were performed with SB—P-81, and compared to a negative control vehicle and a current commercial insecticide Chlorantraniliprole. The activity of SB—P-81 is shown in FIG. 6; SB—P-81 has good activity whilst being eco-friendly and targeted to specific pests unlike broad spectrum chemical insecticides such as Chlorantraniliprole.
# [2] = system: Plutella xylostella; assay: Leaf dip assay 1 (IRAC susceptibility test method 018, performed by FERA), mortality; type: in vivo; conditions: unformulated peptide at 2×10^−4 M; 2nd/3rd instar larvae on dipped Chinese cabbage leaf discs; mortality assessed after 120 hours; FIG. 4
# Method: The assay was carried out based on IRAC susceptibility test method 018 by a contract research organization, FERA Science Ltd. Test insects Larvae (2nd/3rd instar) were sourced from a laboratory culture of P. xylostella. The culture has been maintained in a controlled environment (CE) room with conditions of 25° C. and 16:8 lighting regime on Chinese cabbage plants. Chinese cabbage leaves were used in the bioassays. A CE room set at 25° C. and 60% r.h. with a 16 hour light: 8 hours dark lighting regime, was used. Leaf discs (approximately 35 mm in diameter) were cut from fully expanded Chinese cabbage leaves. Each leaf disc was dipped in a separate peptide solution for 10 seconds with gentle agitation and placed on a damp filter paper (underside surface uppermost). There were ten replicates for each treatment and control, with five leaf discs per replicate. The treated discs were then put onto damp filter paper in the base of a Petri dishes (90 mm in diameter, 15 mm high) (underside surface uppermost). Five larvae were then transferred onto the treated leaf discs. The dishes were placed in the CE room and mortality was assessed after 120 hours. Leaf dip assays were performed with SB—P-81, and compared to a negative control vehicle and a current commercial insecticide Gazelle SG (shown as Acetamiprid). […]
substance,measurement,setting,value
"[Hy]-GGSMTFSPRL-[NH2] (H-GGSMTFSPRL-NH2) [SB—P-81, pyrokinin peptide according to the invention]","activity against Plutella xylostella (mortality), leaf dip assay 2",[1],good activity
same,"activity against Plutella xylostella (mortality), leaf dip assay 1",[2],good activity
